Data taken from article PMC6254286, “Quantitative Structure − Antiprotozoal Activity Relationships of Sesquiterpene Lactones ^†” (Molecules, 2009).
Where two headings read alike, the source gives them in different places.

Legend:
[1] = Cytotoxicity against L6 cells (Alamar blue); conditions: rat; for IC50: IC50 Cytotoxicity (L6), L6 rat skeletal myoblasts, 72 h, mean of two independent measurements
Protocol: (§1) Trypanosoma brucei rhodesiense and cytotoxicity against L6 cells. Minimum Essential Medium with Earle’s salts (50 µL) supplemented with 0.2 mM 2-mercapto-ethanol, 1 mM Na-pyruvate and 15% heat-inactivated horse serum was added to each well of a 96-well microtiter plate. […] Then 10^4 bloodstream forms of Trypanosoma brucei rhodesiense STIB 900 in 50 µL of medium were added to each well and the plate incubated at 37°C under a 5% CO2 atmosphere for 72 hours. […] The plate was then read in a Spectramax Gemini XS microplate fluorometer (Molecular Devices Corporation, Sunnyvale, CA, USA) using an excitation wavelength of 536 nm and emission wavelength of 588 nm. Fluorescence development was measured and expressed as percentage of the control. Data were transferred into the graphic programme Softmax Pro (Molecular Devices) which calculated IC50 values. Cytotoxicity was assessed using a similar protocol and rat skeletal myoblasts (L6 cells). […] All following steps were according to the T. b. rhodesiense protocol.

[2] = system: T. cruzi Tulahuen strain C2C4; assay: In vitro activity against T. cruzi in L-6 host cells (beta-galactosidase/CPRG); format: cell-based, Trypanosoma cruzi; conditions: Trypanosoma cruzi, read-out: IC50 T. cruzi (Tcr)
Protocol: Trypanosoma cruzi. Rat skeletal myoblasts (L-6 cells) were seeded in 96-well microtiter plates at 2,000 cells/well in 100 µL RPMI 1640 medium with 10% FBS (fetal bovine serum) and 2 mM L-glutamine. After 24 hours the medium was removed and replaced by 100 µL per well containing 5,000 trypomastigote forms of T. cruzi Tulahuen strain C2C4 containing the β-galactosidase (Lac Z) gene. Fortyeight hours later the medium was removed from the wells and replaced by […] fresh medium with or without a serial drug dilution. Seven 3-fold dilutions were used covering a range from […]. Each drug was tested in duplicate. After 96 hours of incubation the plates were inspected under an inverted microscope to assure growth of the controls and sterility. Then the substrate CPRG/ Nonidet (50 µL) was added to all wells. A colour reaction developed within 2-6 hours and could be read photometrically at 540 nm.

[3] = system: K1 strain of P. falciparum; assay: Antiplasmodial [3H]-hypoxanthine incorporation assay; format: cell-based, Plasmodium falciparum; conditions: Plasmodium falciparum
Protocol: Plasmodium falciparum. Antiplasmodial activity was determined using the K1 strain of P. falciparum (resistant to chloroquine and pyrimethamine). A modification of the [3H]-hypoxanthine incorporation assay was used. Briefly, infected human red blood cells (final parasitaemia and haematocrit were 0.3% and 1.25%, respectively) in RPMI 1640 medium with 5% Albumax were exposed to serial drug dilutions in microtiter plates. After 48 hours of incubation at 37°C in a reduced oxygen atmosphere, 0.5 mCi 3H-hypoxanthine was added to each well. Cultures were incubated for a further 24 h before they were harvested onto glass-fiber filters and washed with distilled water. The radioactivity was counted using a BetaplateTM liquid scintillation counter (Wallac, Zurich, Switzerland). […] From the sigmoidal inhibition curves IC50 values were calculated. Assays were run in duplicate and repeated once.

[4] = system: Leishmania donovani amastigotes (strain MHOM/ET/67/L82); assay: L. donovani axenic amastigote assay (resazurin); format: cell-based; conditions: for IC50: Leishmania donovani
Protocol: Leishmania donovani (axenic amastigote assay). […] Serial drug dilutions in duplicates were prepared covering a range from 30 to 0.041 µg/mL. […] The compounds used as positive controls in the various bioassays (see Table 1) were of commercial origin, with the exception of melarsoprol, which was a gift from WHO. Their purity (generally > 95%) was specified by the manufacturers.

[5] = system: Trypanosoma brucei rhodesiense STIB 900; assay: In vitro activity against T. brucei rhodesiense bloodstream forms (Alamar blue); format: cell-based; conditions: for IC50: mean of two independent measurements
Protocol: as §1

[6] = L6 cells (rat skeletal myoblasts)
[7] = TULAHUEN, L6, 96 h, Tulahuen C2C4 in L-6 cells, 96 h, mean of two independent measurements
[8] = K1, K1 strain (resistant to chloroquine and pyrimethamine), mean of two independent measurements, read-out: IC50 P. falciparum (Pfc)
[9] = 72 h, pH 5.4, axenic amastigotes, pH 5.4, 72 h, mean of two independent measurements, read-out: IC50 L. donovani (Ldon)
[10] = Trypanosoma brucei, 72 h, bloodstream forms STIB 900, 72 h, read-out: IC50 T. brucei rhodes. (Tbr)
[11] = L6, Tulahuen C2C4 in L-6 cells, 96 h, mean of two independent measurements
[12] = K1, read-out: IC50 P. falciparum (Pfc)
[13] = axenic amastigotes, pH 5.4, 72 h, mean of two independent measurements, read-out: IC50 L. donovani (Ldon)

SMILES | IC50 at 72 h [1, 6] [µM] | IC50 [2, 7] [µM] | IC50 [3, 8] [µM] | IC50 [4, 9] [µM] | IC50 [5, 10] [µM] | other results
C=C1C(=O)OC2CC(C)C3(O)C=C(C(C)=O)C4(CC3CC12)C(=O)OC1CC(C)C2(C=CC(C)=O)OC2CC14 (centres unmarked) [Compound 22] | 13.3 | 95.4 | 6.53 | 26.9 | 1.29 | –
C=C1C(=O)OC2C=C(C)CCC3OC3(COC(C)=O)CC(OC(=O)C3(C)OC3C)C12 (centres unmarked) [Compound 37] | 7.75 | 15.8 | 6.33 | 5.19 | 0.478 | –
C=C1C(=O)OC2CC(C)C3C=CC(=O)C3(C)C(OC(=O)CC(C)C)C12 (centres unmarked) [Compound 4] | – | – | – | – | 0.116 | IC50 [1]: 1.3 µM; IC50 [2, 11]: 2.48 µM; IC50 [3, 12]: 0.822 µM; IC50 [4, 13]: 0.871 µM
C=C1C(=O)OC2CC(C)C3(O)C=C(C(C)=O)C4(CC3CC12)C(=O)OC1CC(C)C(C=CC(C)=O)=CCC14 (centres unmarked) [Compound 21] | 9.43 | 16.1 | 4.96 | 22 | 0.638 | –
C=C1C(=O)OC2CC(C)C3C=CC(=O)C3(C)C(OC(=O)C(C)C)C12 (centres unmarked) [Compound 3] | – | – | – | – | 0.105 | IC50 [1]: 1.03 µM; IC50 [2, 11]: 1.57 µM; IC50 [3, 12]: 0.7 µM; IC50 [4, 13]: 0.837 µM
C=C1C(=O)O[C@H]2[C@H]1CC/C(C)=C/CC[C@@]1(C)O[C@@H]21 [Compound 34, parthenolide] | 7.24 | 10.7 | 11.9 | 3.56 | 0.388 | –
C=C1C(=O)OC2CC(C)C3=CC(=O)OC3CC12 (centres unmarked) [Compound 24] | 427 | > 120 | > 20 | 27.1 | 8.21 | selectivity index (SI) with respect to Ldon ([4]; ratio of cytotoxic IC50 (L6) over IC50 against Ldon): 15; selectivity index (SI) with respect to Tbr ([5]; ratio of cytotoxic IC50 (L6) over IC50 against Tbr): 52
C=C1C(=O)OC2CC(C)C3C(OC(C)=O)CC(OC(C)=O)C3(C)CC12 (centres unmarked) [Compound 14] | 8.43 | 14.7 | 8.94 | 4.26 | 1.17 | –
C=C1C(=O)OC2C=C(C)C(OC(C)=O)CC3OC3(C)CC(OC(=O)C(C)=CC)C12 (centres unmarked) [Compound 39] | – | – | – | – | – | IC50 at 72 h [1]: 10.1 µM; IC50 ([2]; TULAHUEN, L6, 96 h): 17.6 µM; IC50 [3, 12]: 8.07 µM; IC50 ([4]; 72 h, pH 5.4, read-out: IC50 L. donovani (Ldon)): 30.1 µM; IC50 ([5]; Trypanosoma brucei, 72 h, read-out: IC50 T. brucei rhodes. (Tbr), bloodstream forms STIB 900, 72 h): 0.804 µM
C=C1C(=O)OC2CC(C)C3C(OC(C)=O)CC(O)C3(C)CC12 (centres unmarked) [Compound 10] | – | 20.4 | 6.46 | 12.2 | 6.71 | IC50 [1]: 4.39 µM
C=C1C(=O)OC2C1CCC1(C)C(O)CCC(=C)C21 (centres unmarked) [Compound 31] | – | 28.9 | 12.1 | 6.01 | – | IC50 [1]: 33.2 µM; IC50 ([5]; bloodstream forms STIB 900, 72 h, read-out: IC50 T. brucei rhodes. (Tbr)): 17.8 µM
C=C1C(=O)OC2CC(C)C(CCC(C)=O)=CCC12 (centres unmarked) [Compound 17] | 179 | > 120 | > 20 | 23.8 | 62.1 | –
C=C1CC(O)CC2(C)CC3OC(=O)C(C)C3CC12 (centres unmarked) [Compound 28] | 187 | > 120 | > 20 | > 120 | 341 | –
C=C1C(=O)OC2CC3(C)CC(=O)CC(C)C3=CC12 (centres unmarked) [Compound 30] | 10.2 | 17.3 | 10.7 | 8.7 | 1.6 | –
C=C1C(=O)OC2CC(C)C3C(O)CC(O)C3(C)C(OC(=O)C(C)=CC)C12 (centres unmarked) [Compound 13] | – | – | – | – | 19.2 | IC50 [1]: 31.8 µM; IC50 [2, 11]: 60.2 µM; IC50 [3, 12]: 27.5 µM; IC50 [4, 13]: 14.5 µM
C=C1C(=O)OC2CC(C)C3C(OC(C)=O)CC(O)C3(COC(C)=O)CC12 (centres unmarked) [Compound 16] | 21.6 | 44.9 | 10.7 | 11.8 | 13.6 | –
C=C1C(=O)OC2C=C(C)C(O)CC3OC3(C)CC(OC(=O)C(C)=CC)C12 (centres unmarked) [Compound 38] | 13 | 16.5 | 8.81 | 18.2 | 0.942 | –
CC1=CCCC2(C)OC2C2OC(=O)C(C)C2CC1 (centres unmarked) [Compound 35] | 133 | > 120 | > 20 | 35.6 | 49 | –
C=C1C(=O)OC2C=C(C)C(O)CC3OC3(COC(C)=O)CC(OC(=O)C(C)=CC)C12 (centres unmarked) [Compound 40] | – | 11.8 | 6.64 | 17.1 | 0.698 | IC50 [1]: 6.67 µM
C=C1C(=O)OC2CC3(C)CCCC(C)C3=CC12 (centres unmarked) [Compound 29] | – | 8.3 | 6.4 | 3.03 | 2.62 | IC50 at 72 h [1]: 5.99 µM
CC1CC2OC(=O)C34CC5(C)C=CC13C(CC24)O5 (centres unmarked) [Compound 23] | – | > 120 | > 20 | 15.4 | 162 | IC50 [1]: > 365 µM
C=C1C(=O)OC2CC(C)C3C(O)CC(O)C3(C)CC12 (centres unmarked) [Compound 11] | 31.9 | 52.7 | 12.1 | 20.6 | 18.3 | –
C=C1C(=O)OC2CC3(C)CC(OC(C)=O)CC(=C)C3CC12 (centres unmarked) [Compound 27] | 8.91 | 24.3 | 9.21 | 11.8 | 10.7 | –
C=C1C(=O)OC2CC3(C)C(CCC(C)=O)C3CC12 (centres unmarked) [Compound 20] | – | 39 | 12.7 | 14.6 | 15.9 | IC50 at 72 h [1]: 19.8 µM
